US12503452B2 (Curza Global, LLC, priority 2019, dated 2025)
Structures can show the parent of a compound that is named as a salt. Where two headings read alike, the source gives them in different places.

Columns and labels:
[1] = system: E. coli S30 extract (bacterial protein synthesis); assay: E. coli S30 extract coupled transcription-translation luciferase assay (inhibition of bacterial protein synthesis); assay type: biochemical; settings: class by IC50 or % inhibition @ 1 μM, read-out: S30 IC50 (μM/% inhib.)
Method in brief: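 Cell-free coupled transcription-translation in E. coli S30 circular-DNA extract, with pBESTluc plasmid as template and complete amino acid mix. Eight 2-fold compound dilutions were incubated with the extract 1 h at 37 °C, chilled, then luciferase luminescence was read. % inhibition was taken relative to no-inhibitor wells; no-DNA wells gave background.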

[2] = target: Rabbit Reticulocyte Lysate (eukaryotic protein synthesis); assay: Rabbit reticulocyte lysate luciferase assay (inhibition of eukaryotic protein synthesis); assay type: biochemical; settings: class by IC50 or % inhibition @ 1 μM, read-out: Rabbit reticulocyte IC50 (μM/% inhib.)
Method in brief: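 Nuclease-treated rabbit reticulocyte lysate translating luciferase control RNA, with complete amino acids, was incubated at 30° C. for 90 minutes with 2-fold serial compound dilutions. Luminescence was measured after adding luciferase reagent. % inhibition was relative to water controls, with no-RNA wells as background.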

A. baumannii (Ab) = assay: Broth microdilution minimum inhibitory concentration (MIC); assay type: cell-based; settings: Acinetobacter baumannii, read-out: Ab + bicarb MIC
Method in brief: (§1)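 CLSI broth microdilution (M07-A9, slightly modified) in CAMHB, optionally with 6.25 or 25 mM sodium bicarbonate or 0–50% heat-inactivated human serum. Two-fold serial dilutions (8 concentrations, triplicate) were inoculated at 5×10^4 CFU/well from 0.5 McFarland cultures grown at 35±2 °C.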

E. coli (Ec) = assay: as above; assay type: cell-based; settings: Escherichia coli, read-out: E. coli + bicarb MIC
Method in brief: as §1

E. faecalis (Ef) = assay: as above; assay type: cell-based; settings: Enterococcus faecalis, read-out: Ef + bicarb MIC
Method in brief: as §1

P. aeruginosa (Pa) = assay: as above; assay type: cell-based; settings: Pseudomonas aeruginosa, read-out: Pa MIC + bicarb
Method in brief: as §1

S. aureus (Sa) = assay: as above; assay type: cell-based; settings: Staphylococcus aureus, read-out: Sa + bicarb MIC
Method in brief: as §1

[3] = A. baumannii, growth medium supplemented with sodium bicarbonate
[4] = E. coli, growth medium supplemented with sodium bicarbonate
[5] = E. faecalis, growth medium supplemented with sodium bicarbonate
[6] = P. aeruginosa, growth medium supplemented with sodium bicarbonate
[7] = S. aureus, growth medium supplemented with sodium bicarbonate
[8] = A. baumannii, growth medium with sodium bicarbonate
[9] = E. coli, growth medium with sodium bicarbonate
[10] = E. faecalis, growth medium with sodium bicarbonate
[11] = P. aeruginosa, growth medium with sodium bicarbonate
[12] = S. aureus, growth medium with sodium bicarbonate

Row | SMILES | IC50 [1] [µM] | IC50 [2] [µM] | MIC (A. baumannii (Ab); [3]) [µg/mL] | MIC (E. coli (Ec); [4]) [µg/mL] | MIC (E. faecalis (Ef); [5]) [µg/mL] | MIC (P. aeruginosa (Pa); [6]) [µg/mL] | MIC (S. aureus (Sa); [7]) [µg/mL] | MIC (A. baumannii (Ab)) [µg/mL] | MIC (E. coli (Ec)) [µg/mL] | MIC (E. faecalis (Ef)) [µg/mL] | MIC (P. aeruginosa (Pa)) [µg/mL] | MIC (S. aureus (Sa)) [µg/mL] | MIC (A. baumannii (Ab); [8]) [µg/mL] | MIC (E. coli (Ec); [9]) [µg/mL] | MIC (E. faecalis (Ef); [10]) [µg/mL] | MIC (P. aeruginosa (Pa); [11]) [µg/mL] | MIC (S. aureus (Sa); [12]) [µg/mL]
1 | CN(Cc1ccc(-n2ccc(NC(=O)N3CCN(C(=O)C(C)(C)N)CC3)nc2=O)cc1)[C@@H]1CC[C@H](N)C1 [Compound 115] | < 0.5 | > 1 | > 32 | < 8 | 8 to 32 | > 32 | < 8 | – | – | – | – | – | – | – | – | – | –
2 | CNC1CCCN(CCc2ccc(-n3ccc(NC(=O)N4CCN(C(=O)C(C)(C)N)CC4)nc3=O)cc2)CC1 (stereo not drawn) [Compound 33] | 0.5 to 1 | > 1 | > 32 | < 8 | > 32 | > 32 | 8 to 32 | – | – | – | – | – | – | – | – | – | –
3 | CC(C)(N)C(=O)N1CCN(C(=O)Nc2ccn(-c3ccc(CN4CC[C@H](N)[C@@H](F)C4)cc3)c(=O)n2)CC1 [Compound 344, hydrochloride salt] | > 1 | > 1 | – | – | – | – | – | > 32 | > 32 | > 32 | > 32 | > 32 | – | – | – | – | –
4 | CC(C)(N)C(=O)N1CCN(C(=O)Nc2ccn(-c3ccc(CN4CC(O)(CCN)C4)cc3)c(=O)n2)CC1 [Compound 205] | < 0.5 | > 1 | – | – | – | – | – | – | – | – | – | – | > 32 | < 8 | > 32 | > 32 | 8 to 32
5 | C[C@](N)(CO)C(=O)N1CCN(C(=O)Nc2ccn(-c3ccc(CNC4CCC(N)CC4)cc3)c(=O)n2)CC1 (stereo partly drawn) [Compound 288] | < 0.5 | > 1 | – | – | – | – | – | – | – | – | – | – | > 32 | < 8 | < 8 | > 32 | < 8
6 | CN(Cc1ccc(-n2ccc(NC(=O)N3CCN(C(=O)C(C)(C)N)CC3)nc2=O)cc1)[C@H]1CC[C@H](N)C1 [Compound 124] | < 0.5 | > 1 | > 32 | < 8 | < 8 | > 32 | < 8 | – | – | – | – | – | – | – | – | – | –
7 | CC(C)(N)C(=O)N1CCN(C(=O)Nc2ccn(-c3ccc(CCN4CCC(N)CC4)cc3)c(=O)n2)CC1 [Compound 198] | < 0.5 | > 1 | – | – | – | – | – | – | – | – | – | – | > 32 | < 8 | 8 to 32 | > 32 | 8 to 32
8 | Cc1cc(-n2ccc(NC(=O)N3CCN(C(=O)C(C)(C)N)CC3)nc2=O)ccc1CCN1CCCC(N)CC1 (stereo not drawn) [Compound 140] | < 0.5 | > 1 | 8 to 32 | < 8 | < 8 | 8 to 32 | < 8 | – | – | – | – | – | – | – | – | – | –
9 | CC(Cc1ccc(-n2ccc(NC(=O)N3CCN(C(=O)C(C)(C)N)CC3)nc2=O)cc1)N[C@H]1CC[C@@H](N)C1 (stereo partly drawn) [Compound 150] | 0.5 to 1 | > 1 | > 32 | < 8 | > 32 | > 32 | < 8 | – | – | – | – | – | – | – | – | – | –
10 | CC(C)(N)C(=O)N1CCN(C(=O)Nc2ccn(-c3ccc(CCN4CCCC(N)CC4)cc3)c(=O)n2)CC1 (stereo not drawn) [Compound 21] | < 0.5 | > 1 | > 32 | < 8 | < 8 | 8 to 32 | < 8 | – | – | – | – | – | – | – | – | – | –
11 | CC(C)(N)C(=O)N1CCN(C(=O)Nc2ccn(-c3ccc(CCN4CCCC(NC5CC5)CC4)cc3)c(=O)n2)CC1 (stereo not drawn) [Compound 29] | > 1 | > 1 | > 32 | < 8 | > 32 | > 32 | 8 to 32 | – | – | – | – | – | – | – | – | – | –
12 | CC(Cc1ccc(-n2ccc(NC(=O)N3CCN(C(=O)C(C)(C)N)CC3)nc2=O)cc1)N(C)C1CCC(CN)CC1 (stereo not drawn) [Compound 153] | > 1 | > 1 | > 32 | < 8 | > 32 | > 32 | < 8 | – | – | – | – | – | – | – | – | – | –
13 | NC1CCN(Cc2ccc(-n3ccc(NC(=O)N4CC5(CC(N)C5)C4)nc3=O)cc2)CC1 [Compound 289] | 0.5 to 1 | > 1 | – | – | – | – | – | – | – | – | – | – | > 32 | < 8 | > 32 | > 32 | < 8
14 | CC(Cc1ccc(-n2ccc(NC(=O)N3CCN(C(=O)C(C)(C)N)CC3)nc2=O)cc1)N[C@@H]1CC[C@@H](N)C1 (stereo partly drawn) [Compound 173] | < 0.5 | > 1 | – | – | – | – | – | – | – | – | – | – | > 32 | < 8 | 8 to 32 | > 32 | < 8
15 | CC(Cc1ccc(-n2ccc(NC(=O)N3CCN(C(=O)C(C)(C)N)CC3)nc2=O)cc1)N[C@H]1CC[C@H](N)C1 (stereo partly drawn) [Compound 162] | < 0.5 | > 1 | > 32 | < 8 | 8 to 32 | > 32 | < 8 | – | – | – | – | – | – | – | – | – | –
16 | CC(C)(N)C(=O)N1CCN(C(=O)Nc2ccn(-c3ccc(CN4CC[C@@H](CN)C4)cc3)c(=O)n2)CC1 [Compound 243] | < 0.5 | > 1 | – | – | – | – | – | – | – | – | – | – | > 32 | < 8 | 8 to 32 | > 32 | < 8
17 | CO[C@H]1C[C@@H](N(C)Cc2ccc(-n3ccc(NC(=O)N4CCN(C(=O)C(C)(C)N)CC4)nc3=O)cc2)CC[C@@H]1N [Compound 340, hydrochloride salt] | 0.5 to 1 | > 1 | – | – | – | – | – | > 32 | < 8 | > 32 | > 32 | 8 to 32 | – | – | – | – | –
18 | CC(Cc1ccc(-n2ccc(NC(=O)N3CCN(C(=O)C(C)(C)N)CC3)nc2=O)cc1)N(C)[C@H]1CC[C@@H](N)C1 (stereo partly drawn) [Compound 149] | < 0.5 | > 1 | > 32 | < 8 | 8 to 32 | > 32 | < 8 | – | – | – | – | – | – | – | – | – | –
19 | CC(C)(N)C(=O)N1CCN(C(=O)Nc2ccn(-c3ccc(CNC4CC(N)CC(O)C4)cc3)c(=O)n2)CC1 (stereo not drawn) [Compound 342, hydrochloride salt] | < 0.5 | > 1 | – | – | – | – | – | > 32 | 8 to 32 | > 32 | > 32 | > 32 | – | – | – | – | –
20 | C[C@@H]1CCN(CCc2ccc(-n3ccc(NC(=O)N4CCN(C(=O)C(C)(C)N)CC4)nc3=O)cc2)CC[C@H]1N [Compound 27] | < 0.5 | > 1 | > 32 | < 8 | < 8 | 8 to 32 | < 8 | – | – | – | – | – | – | – | – | – | –
21 | CC(C)(N)CC1(F)CCN(C(=O)Nc2ccn(-c3ccc(CN4CCC(N)CC4)cc3)c(=O)n2)CC1 [Compound 233] | > 1 | > 1 | – | – | – | – | – | – | – | – | – | – | > 32 | < 8 | > 32 | > 32 | < 8
